In patent US20190211099A1, “METHODS AND COMPOSITIONS FOR TREATING CANCER WITH SIGLEC-9 ACTIVITY MODULATORS” (KING'S COLLEGE LONDON, priority 2016, published 2019):

Assays:
[1] = test system: THP-1 cells; assay: PAI-1, M-CSF and kynurenine in supernatants of differentiated THP-1 cells; type: cell-based, human; details: 100 μg/mL MUC1-ST
Method: THP-1 cells were cultured at a concentration of 1×10^6/mL in AIM V medium. Cells were differentiated using […] phorbol 12-myristate 13-acetate (PMA) on day 0 and 100 ng/mL LPS on day 3 in the presence or absence of 100 μg/mL MUC1-ST or MUC1-T. Cell supernatants were harvested on day 5 and PAI-I concentration measured by ELISA.
Given that IDO catalyzes the rate-limiting step in the metabolism of tryptophan, the tryptophan metabolite kynurenine was detected as follows. 604, supernatant was mixed with 304, 30% trichloroacetic acid (TCA) and incubated for 30 minutes at 50° C. The supernatant was spun at 3000×g and 50 μL was harvested and mixed with 50 μL freshly prepared Ehrlich Reagent (2% p-dimethylaminobenzaldehyde in glacial acetic acid). After 10 minutes optical density (O.D.) was measured at 492 nm, and concentrations were calculated against a kynurenine standard curve. An increase in the tryptophan metabolite kynurenine was observed (FIG. 11D).
The intracellular effects of MUC1-ST binding to Siglec-9 were further explored in the monocytic cell line, THP-1. THP-1 cells were cultured for three days at a concentration of 1×10^6/mL in AIM V medium and differentiated using […] phorbol 12-myristate 13-acetate (PMA) in the presence or absence of 100 μg/mL MUC1-ST. […] THP-1 cells were further treated with DMSO or the MEK/ERK inhibitor PD98059 at 1004, and the concentration of PAI-1, M-CSF and kynurenine in cell supernatants were measured as described above. […] This increase in concentration was blocked by the MEK/ERK inhibitor PD98059 (FIG. 4I).

[2] = test system: monocyte derived macrophages; assay: Factors secreted by monocyte derived macrophages treated with MUC1-ST (ELISA); type: cell-based, human
Method: ELISAs for IL-6, IL-12p70, TGF-β1, PAI-1, M-CSF, EGF, SHP2, phospho-SHP2 (Biotechne) were all carried out as per manufacturer's instructions.
Secreted proteins from monocyte derived macrophages were assayed by ELISA as described in Example 2. […] All of these factors are associated with tumor progression (Duffy et al. (2014) BREAST CANCER RES. 16: 428; Jensen et al. (2002) CLIN. CANCER RES. 9:4423-4434). […] It has been discovered that MUC1-ST/Siglec-9 ‘educated’ monocytes and macrophages have a unique secretome.

[3] = test system: macrophages; assay: Phenotype of MUC1-ST treated macrophages (CD206, CD163, PD-L1; flow cytometry); type: cell-based, human
Method: Both the cell phenotype staining and neutralization studies described in the Examples were performed using the following antibodies (all anti-human): Siglec-9 (Biotechne; 191240), Siglec-9 FITC (Biotechne; 191240), Siglec-3 (Biotechne; 6C5/2), Siglec-7 (Biotechne; AF1138), Siglec-3 FITC (BD; P67.6), Siglec-7 PE (Biolegend; 6-434), Siglec-10 PE (Biolegend; 5G6), Siglec-1 (abcam; 7D2), HLA-DR FITC (Beckman Coulter; IM0463U), CD16 FITC (Biolegend; B73.1), CD14 FITC (BD 555397), CD69 PE (Beckman Coulter; IM1943), CD25 FITC (ABX228FITC), CD86 PE (Beckman Coulter; IM2729U), CD40 FITC (BD 555588), CD83 PE (Beckman Coulter; IM2218), CD163 PE (Biolegend; GHI/61), CXCR1 FITC (BD Pharmongen; 551126), CD45 PC5 (Beckman Coulter; IM2653U), CD206 PE (ebioscience; 19.2), PD-L1 PE (Biolegend; 29E.2A3), CD36 (Santa Cruz; H-300), TGFbetaRII (Bio-Techne; AF-241), IL-6Rα (Tocilizumab; Roche. A generous gift from Dr. Valerie Corrigall). Cells were suspended in PBS+0.5% BSA (2×10^5 cells/100 μL/sample) and incubated with Abs according to the manufacturer's instructions. At least 1×10^4 events were evaluated using either Epics XL, (Beckman Coulter) or FACSCalibur (BD Biosciences) flow cytometers. Analysis was performed using either WinMDI or Cellquest software.

[4] = test system: indoleamine 2,3-dioxygenase (IDO); assay: IDO mRNA in monocyte-derived macrophages (qRT-PCR); type: cell-based, human; details: macrophages differentiated with GM-CSF or M-CSF
[5] = target: Siglec-9 (Homo sapiens, UniProt Q9Y336); assay: Phosphorylation of Siglec-9 (ELISA, phospho immunoreceptor array); type: cell-based; details: monocytes and macrophages; antibody cross-linked
Siglec-9, sequence (Q9Y336 18-463): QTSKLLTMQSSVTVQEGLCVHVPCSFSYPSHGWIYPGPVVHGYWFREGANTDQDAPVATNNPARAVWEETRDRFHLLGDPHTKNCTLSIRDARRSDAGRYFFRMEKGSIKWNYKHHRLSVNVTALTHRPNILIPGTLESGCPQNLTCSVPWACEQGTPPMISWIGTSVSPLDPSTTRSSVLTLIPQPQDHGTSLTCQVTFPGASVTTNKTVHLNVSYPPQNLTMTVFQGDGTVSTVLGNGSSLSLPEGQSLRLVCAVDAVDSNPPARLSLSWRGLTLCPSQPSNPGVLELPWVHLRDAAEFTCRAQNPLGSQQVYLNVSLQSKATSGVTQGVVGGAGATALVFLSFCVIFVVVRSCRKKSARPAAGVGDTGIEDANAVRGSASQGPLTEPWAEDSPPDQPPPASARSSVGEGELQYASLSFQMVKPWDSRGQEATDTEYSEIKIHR
Method: To determine the intracellular effects of MUC1-ST binding to Siglec-9, the ability of MUC1-ST to induce phosphorylation of the immunoreceptor tyrosine-based inhibitory motif (ITIM) of Siglec-9 thereby inducing intracellular inhibitory signals (Avril et al. (2004) J. IMMUNOL. 173: 6841-6849) was assessed. Without wishing to be bound by theory, it was hypothesized that this was likely occur as the repeated glycans found on MUC1 could be able to crosslink this lectin. To investigate the effects of MUC1-ST on Siglec-9 phosphorylation, monocytes or differentiated M-CSF macrophages were treated with MUC1-ST or cross-linked anti-Siglec-9 antibody at 4° C. for 4 hours or 30 minutes, respectively, and were then brought to 37° C. for 15 minutes, and lysed in the presence of pervanadate. Lysates were assessed for the phosphorylation of Siglec-9 using an ELISA or a 59 phospho immunoreceptor array (Bio-Techne) according to the manufacturer's instructions. For the ELISA, anti-human Siglec-9 was plated overnight (O/N) on plastic before being blocked with 1% BSA in PBS. Clarified supernatant was added and incubated for 2 hours. After incubation with 1 μg/mL biotinylated anti phospho-tyrosine, O.D. at 450 nm was measured after the addition of streptavidin-HRP and substrate.

[6] = test system: monocytes; assay: Calcium flux in monocytes (Fluo-4 intracellular calcium reporter); type: cell-based, human; details: monocytes or macrophages, 100 μg/10^6 cells
Method: In addition, in a murine tumor model Siglec-E (the mouse Siglec with the most similarity to human Siglec-9), was associated with a decrease in alternatively activated macrophages (Laubli et al. (2014) PROC. NATL. ACAD. SCI. USA). As a result, the triggering of a calcium flux when MUC1-ST engaged Siglec-9 was investigated. Briefly, monocytes pre-labeled with an intracellular calcium reporter (Fluo-4; Life Technologies) were treated with MUC1-ST, MUC1-T (100 μg/10^6 cells) or a T47D monolayer, for 4 hours at 4° C. The cells were brought up to 37° C. and calcium flux was measured at 530 nm using a plate reader at the indicated time points. Where not indicated, the time point was 60 seconds. When monocytes or macrophages were treated with MUC1-ST, a Siglec-9 dependent increase in calcium influx was observed (FIGS. 13E-F). A calcium flux was also observed when monocytes and T47D cells came into contact. This effect could also be inhibited by the anti-Siglec-9 antibody.

## NeuAcα2,3Galβ1-3GalNAc linked via a Ser/Thr of MUC1 [MUC1-ST]
[1]; THP-1, PMA, three days
  PAI-1 concentration in cell supernatants: increased
  kynurenine concentration in cell supernatants: increased
[1]; THP-1 differentiated with PMA and LPS, day 5
  PAI-I secretion: increased
[2]
  secretion of M-CSF, PAI-1, chitinase 3-like-1 and EGF: increased secretion
[3]
  expression of immune checkpoint ligand PD-L1: increased expression
  levels of mannose receptor (CD206) and scavenger receptor CD163: increased levels
[4]
  increase in expression of mRNA encoding IDO: 10-25 fold
[5]
  phosphorylation of Siglec-9: inhibited
[6]
  calcium influx: increase
